US10016366B2, “Method of preparing lyophilized powder for injection comprising aloe and Panax pseudo-ginseng” (priority 2013, dated 2018)

Legend:
ovariectomized mice [1] = assay: Serum E2, LH and FSH of ovariectomized mice by ELISA; assay type: in vivo, female ICR mice; conditions: 1 mg/kg, one time per day, 14 days, M ± SD
Method: (§1) 3.1 Healthy female ICR mice weighted 20±2 g were anaesthetized by ether and fixed in the abdomen. Bilateral ovaries of the mice were extirpated via back incision below the costal bone. The wounds were stitched and the mice were cultured according to conventional methods. After the wounds were cured, vaginal smear examination was performed, one time per day for five consecutive days, to ensure the ovaries were completely extirpated. The mice in the dioestrum (observations of vaginal smears under microscope found a lot of polynuclear leucocytes and few epithelial cells) in the five consecutive days were qualified mice. 48 mice were randomly divided into 6 groups with each group 8 mice, that is, a model group (be administered with equal volume of normal saline), a diethyl stilbestrol group (1 mg/kg), J01 groups (144 mg/kg, 288 mg/kg), J02 groups (180 mg/kg, 360 mg/kg). Another 6 mice with bilateral ovaries were selected as a control group (be administered with equal volume of normal saline). The mice were administered with corresponding drugs, one time per day, for 14 consecutive days. After one hour from the last injection, blood was sampled from the orbital venous plexus, and centrifuged for 10 min at 3000 rpm. The serum was separated and the E2, LH and FSH values thereof were measured using ELISA method. Thereafter, the abdominal cavity was cut open quickly and thymus, spleen, and uterus were separated and weighed to calculate the coefficients of the thymus, spleen, and uterus.
(§2) The mice were administered with corresponding drugs, 5 mL/kg, one time per day, for 14 consecutive days.
(§3) Viscera index: coefficients of the thymus, spleen, and uterus. Viscera index=organ weight/mice body weight*10. Serum index: E2 (estradiol), LH (luteinizing hormone), FSH (follicle stimulating hormone).
(§4) The difference between groups of the measured data is examined based on ANOVA T-TEST using SPSS10.0.

ovariectomized mice [2] = assay: Viscera index (thymus, spleen, uterus coefficients) of ovariectomized mice; assay type: in vivo, female ICR mice; conditions: 1 mg/kg, one time per day, 14 days, M ± SD
Method: as §1, §2, §3, §4

CC/C(=C(/CC)c1ccc(O)cc1)c1ccc(O)cc1 [Diethylstilbestrol]
E2 (Estrogen) (ovariectomized mice [1]): 113.81 ± 33.85 pg/mL
FSH (Follicle Stimulating Hormone) (ovariectomized mice [1]): 22.54 ± 6.97 ng/mL
LH (luteinizing hormone) (ovariectomized mice [1]): 31.33 ± 4.51 ng/mL
Spleen index (ovariectomized mice [2]): 66.67 ± 16.93 mg/10 g
Thymus index (ovariectomized mice [2]): 32.99 ± 8.11 mg/10 g
Uterus index (ovariectomized mice [2]): 62.67 ± 11.89 mg/10 g
